Data on five compounds can be found in US11117868B2, “Edaravone salt” (Treeway TW001 B.V., priority 2017, dated 2021).

In brackets after ≈: the same amount, converted by molar mass. Several values for one entry are separate records, joined by “and”; a condition that tells them apart may be missing. Identical values can stand only once.

Series [1] can be described thus: Solubility in water after 7 hours equilibration. The format is physicochemical.
Series [2] is described as follows: Intrinsic dissolution rate in water. The format is physicochemical. As to the method: The intrinsic dissolution rate in water of the edaravone salt was 0.37 mg/min/cm^2, whereas the dissolution rate of the freebase was 0.22 mg/min/cm^2.
Series [3] in a line: Hygroscopicity / conversion of polymorph through absorption of water. The format is physicochemical.
Series [4] in a line: Storage stability at controlled temperature and relative humidity.
For series [5] the following is noted: cited from earlier work.

By solubility is commonly meant how much of the substance goes into solution per volume. Higher therefore signals a readily soluble substance.

Take “3-methyl-1-phenyl-2-pyrazolin-5-one hemi-napadisylate monohydrate [Example 1]”: in series [1] (monohydrate), the solubility in water was 2800 µg/mL and 3200 µg/mL. The “intrinsic dissolution rate in water” value in series [2] is listed as 0.37 mg/min/cm^2. Also, the hygroscopicity result in series [3] is listed as “non-hygroscopic”. Further, in series [4], the “stability (in words)” value is “very stable”. The degradation on storage entry in series [4] (kept for 28 days at 40° C. and 75% RH) was “without showing significant degradation”.

In series [1] (thermodynamic from solid), `CC1=NN(c2ccccc2)C(=O)C1` [Edaravone, 3-Methyl-1-phenyl-2-pyrazolin-5-one] yielded a solubility at 7 h of 2000 to 3000 µg/mL (≈ 11.5 to 17.2 mM). In addition, the “intrinsic dissolution rate in water” value in series [2] worked out at 0.22 mg/min/cm^2. For the same compound, in series [5], the “dissolution in water (in words)” value was “dissolves very slowly”.

Regarding `CC1=NN(c2ccccc2)C(=O)C1.CC1=NN(c2ccccc2)C(=O)C1.O.O=S(=O)(O)c1cccc2c(S(=O)(=O)O)cccc12` [Example 3, 3-methyl-1-phenyl-2-pyrazolin-5-one hemi-napadisylate hemihydrate], the “relative humidity at which it is converted into polymorph B through absorption of water” value in series [3] (conversion into polymorph B) is reported as greater than 50 % RH.

Consider `CC1=NN(c2ccccc2)C(=O)C1.CC1=NN(c2ccccc2)C(=O)C1.O.O.O=S(=O)(O)c1cccc2c(S(=O)(=O)O)cccc12` [Example 4, 3-methyl-1-phenyl-2-pyrazolin-5-one hemi-napadisylate monohydrate], for which the hygroscopicity entry in series [3] was “non-hygroscopic”.

On to “anhydrous 3-methyl-1-phenyl-2-pyrazolin-5-one napadisylate [Example 6]”, for which the “relative humidity at which it is converted into polymorph D through absorption of water” value in series [3] (conversion into polymorph D) is greater than 75 % RH. Also, the degradation on storage entry in series [4] (kept for 2 days at 40° C. and 75% RH) was “without showing significant degradation”.
